Where a name gives a salt, the structure may show the parent alone.

Common to all, as to type: cell-based
Assay [1] concerns Mouse embryonic fibroblast (MEF) cells. As to the kind of experiment: Adipocyte differentiation of MEFs, Oil Red O staining. To be noted: for adipogenesis of MEF cells: DM with 5 μM rosiglitazone, CoCl2 25 μM or DFO 25 μM, stained Day 6 (FIG. 1C); for adipocyte differentiation of control-treated MEF cells: control adenovirus, same conditions as cre-treated MEFs (FIG. 2); for adipocyte differentiation of HIF-1α deficient MEF cells: cre-treated MEFs, CoCl2 up to 50 μM, DFO up to 25 μM, entire course (FIG. 2). The procedure:
MEFs were induced to differentiate 2 days after confluence (day 0) with DM supplemented with 5 μM rosiglitazone (Alexander et al., 1998; Lehmann et al., 1995). The medium was replaced on Day 3 with DMEM plus 10% FBS, 1 μg/ml INS and 5 μM rosiglitazone, and was then changed every other day. To remove the HIF-1α gene, subconfluent culture of MEFs with HIF-1α alleles flanked by loxP sites were treated with adenovirus containing cre recombinase or control adenovirus at the multiplicity of infection (MOI) of 50 as previously described (Seagroves et al., 2001). The treated MEF cells were grown to confluence for 2 days before they were induced to differentiate as above.
(§1) To evaluate the effects of hypoxia on adipogenesis, cells were maintained at 20% O2 in standard incubator, 2% O2 in standard incubator or 0.01% O2 in an anaerobic chamber immediately following treatment with DM. Alternatively, CoCl2 or DFO was added to DM at indicated concentrations either during the initial stage of stimulation or for the entire course of differentiation.
(§2) For visualization of differentiated adipocytes, cells were washed with phosphate-buffered saline (PBS) and stained in 60% of the Oil Red O stock solution (0.5 g Oil Red O in 100 ml of isopropanol) for 30 min at 37° C. Cells were briefly washed in 60% isopropanol and then rinsed in distilled water for microscopic observation and photography.

The subject of another assay is PPARγ2 promoter. As to the kind of experiment: PPARγ2 promoter luciferase reporter assay in NIH-3T3 cells. To be noted: for repression of PPARγ2 promoter activity by DEC1 fragments: 0.6-kb PPARγ2 promoter luciferase, co-transfected DEC1 fragments, 0.3 μg DNA each (FIG. 6A). Here is the method: The luciferase reporter construct pX2) under the control of the −603 to +62 PPARγ2 proximal promoter fragment (PPAR) or other deletional subclones was used as described (Tong et al., 2000). NIH-3T3 cells were transiently co-transfected with 0.3 μg each of pXP2 or PPAR and pcDNA3.1His construct expressing a DEC1 fragment using LipofectAmine Plus reagents (Life Technologies). Luciferase activities in cell lysates were measured in triplicates after 40-48 hr of incubation using Monolight 2010 Luminometer (Analytical Luminescence Laboratory, Ann Arbor, Mich.). The luciferase activity is expressed in relation to protein concentrations that vary little from well to well. Alternatively, a Renilla luciferase reporter was co-transfected as a control for transfection efficiency.

The next assay concerns PPARγ2. As to the kind of experiment: PPARγ2 mRNA expression in L1 cells, Northern blotting. To be noted: for PPARγ2 expression in L1 cells with ectopic expression: retroviral infection, RNA on Day 2 after IDM stimulation (FIG. 7B); for PPARγ2 expression in L1 cells: 50 μM CoCl2 or 100 μM DFO during induction (FIG. 3C). Here is the method:
Total cellular RNA was isolated with Trizol reagent (Life Technologies). The following plasmids were used for cDNA template preparations by restriction digest: MSV-C/EBPβ and MSV-C/EBPδ (S. L. McKnight, Univ. Texas Southwestern Medical Center, Dallas, Tex.), pSVsport-PPARγ2 (B. M. Spiegelman), pBS-Stra13 (P. Chambon, INSERM, Strasbourg, France). Hybridization was carried out at 65° C. for 6 to 12 hr. The radioactive blot was visualized on Storm 860 PhosphoImager (Molecular Dynamics, Sunnyvale, Calif.).

In a further assay the test system is 3T3-L1 preadipocytes. As to the kind of experiment: Adipocyte differentiation of 3T3-L1 (L1) cells, Oil Red O staining. Conditions: for adipocyte differentiation of L1 cells on retroviral overexpression: retroviral infection, vs vector control pLXSN, stained Day 5 (FIG. 7A); for differentiation of C/EBPβ-expressing L1 cells: agent present for first 2 days of adipogenic induction, 50 μM CoCl2 or 100 μM DFO (FIG. 4B); for differentiation and/or fat accumulation of C/EBPβ-expressing L1 cells: continuous presence (6 days), 50 μM CoCl2 or 100 μM DFO, 20% O2 (FIG. 4B); for differentiation of PPARγ2-expressing L1 cells: stimulated by rosiglitazone, 50 μM CoCl2 or 100 μM DFO for 6 days (FIG. 4C). The procedure: Based on previously described procedure (Wu et al., 1996), L1 cells were maintained in GM for 2 days after confluence. The confluent cells were treated (day 0) with differentiation medium (DM) containing 10% FBS, 10 μg/ml INS, 1 μM DEX and 0.5 mM MIX in DMEM for 2 days. Cells were then maintained in DMEM containing 10% FBS and 1 μg/ml INS, and the medium was replaced every other day.
as §1, §2
Retroviruses were produced using the phoenix cell system (Baker et al., 1992; Pear et al., 1993). L1 cells at 30-50% confluence were retrovirally infected 2-3 times with 8 μg/ml Polybrene by centrifugation at 1800-2000 rpm for 1 hr, followed by overnight incubation at 32° C. For generation of stable C/EBPβ-expressing cells, L1 cells were infected with pBABEpuro or pBABEpuro-C/EBPβ (S. R. Farmer, Boston University, Boston, Mass.), followed by selection with 1 μg/ml of puromycin (Sigma). The stable cells were grown to confluence and induced to differentiate as described above. For transient infection with pBABEpuro, pBABEpuor-PPARγ2 (B. M. Spiegelman, Harvard University, Boston, Mass.), pLXSN/HA-DEC1, pLXSN-DEC1 and pLXSN-N1, L1 cells were spin-infected and induced to differentiate as described above.

Setting [2] is: agent for first 2 days of induction with IDM, CoCl2 50 μM, DFO 100 μM, stained Day 6 (FIG. 1B).
[3] abbreviates: agent in treatment media throughout the course of induction (6 days).

As for `CN(CCOc1ccc(CC2SC(=O)NC2=O)cc1)c1ccccn1` (centres unmarked) [rosiglitazone], the “MEF cells that differentiate into adipocytes” value in assay [1] (IDM supplemented with 5 μM rosiglitazone) was 15-20%.

On to “DEC1: full-length DEC1 bHLH transcription repressor, expressed from pcDNA3.1-DEC1 or pLXSN-DEC1”, for which, in the assay with PPARγ2 promoter (0.6-kb PPARγ2 promoter (−603 to +62) luciferase, compared to the vector control, co-transfection (FIG. 6A)), the “repression of PPARγ2 promoter activity” value is reported as 70%. In addition, in the assay on PPARγ2 promoter (0.6-kb promoter with BsrGI-StuI fragment deleted (FIG. 6B)), the “repression of FLΔBrS promoter (BrS deleted)” value is listed as “no longer repressed”. Besides, in the assay on PPARγ2, the “PPARγ2 expression in L1 cells with ectopic expression” value is reported as “repressed”. The “adipocyte differentiation of L1 cells on retroviral overexpression” value (“adipocyte differentiation of L1 cells” for short) in the assay on 3T3-L1 preadipocytes is reported as “nearly complete inhibition of adipocyte differentiation”.

On to `[Cl][Co][Cl]` [CoCl2, Cobalt Chloride], for which the “PPARγ2 expression in L1 cells” value with PPARγ2 was “repressed”. Besides, in assay [1], the “adipogenesis of MEF cells” value is “suppresses adipogenesis”, the “adipocyte differentiation of control-treated MEF cells” value is reported as “significantly represses differentiation” and the “adipocyte differentiation of HIF-1α deficient MEF cells” value is given as “continue to undergo significant adipocyte differentiation”. Moreover, the L1 cell differentiation entry with 3T3-L1 preadipocytes (setting [2]) is reported as “sufficient to prevent L1 cell differentiation”. Also, the L1 cell differentiation result with 3T3-L1 preadipocytes (setting [3]) was “Inhibition of L1 cell differentiation”. Besides, in the assay on 3T3-L1 preadipocytes, the “differentiation of C/EBPβ-expressing L1 cells” value is “still able to differentiate into fat-laden adipocytes”, the “differentiation and/or fat accumulation of C/EBPβ-expressing L1 cells” value was “significantly reducing differentiation and/or fat accumulation” and the “differentiation of PPARγ2-expressing L1 cells” value is recorded as “majority of the PPARγ2-expressing cells differentiate into adipocytes”.

On to “HA-DEC1: HA-tagged full-length DEC1 expressed from pLXSN/HA-DEC1”, for which, in the assay with PPARγ2, the “PPARγ2 expression in L1 cells with ectopic expression” value is given as “repressed”. For the same molecule, the “adipocyte differentiation of L1 cells” value with 3T3-L1 preadipocytes is recorded as “nearly complete inhibition of adipocyte differentiation”.

Turning to `CC(=O)N(O)CCCCCNC(=O)CCC(=O)N(O)CCCCCNC(=O)CCC(=O)N(O)CCCCCN` [DFO, deferoxamine mesylate], the “PPARγ2 expression in L1 cells” value in the assay with PPARγ2 is “repressed”. Moreover, in assay [1], the “adipogenesis of MEF cells” value was “suppresses adipogenesis”, the “adipocyte differentiation of control-treated MEF cells” value is given as “significantly represses differentiation” and the “adipocyte differentiation of HIF-1α deficient MEF cells” value is recorded as “continue to undergo significant adipocyte differentiation”. In the assay with 3T3-L1 preadipocytes (setting [2]), the L1 cell differentiation result is given as “sufficient to prevent L1 cell differentiation”. Besides, the L1 cell differentiation result with 3T3-L1 preadipocytes (setting [3]) is listed as “Inhibition of L1 cell differentiation”. Besides, in the assay on 3T3-L1 preadipocytes, the “differentiation of C/EBPβ-expressing L1 cells” value is “still able to differentiate into fat-laden adipocytes”, the “differentiation and/or fat accumulation of C/EBPβ-expressing L1 cells” value was “significantly reducing differentiation and/or fat accumulation” and the “differentiation of PPARγ2-expressing L1 cells” value was “majority of the PPARγ2-expressing cells differentiate into adipocytes”.

B1: C2: C-terminal DEC1 fragment aa201-412 (protein, UniProt O14503 201-412, looked up, fragment)
chain: FKEKPSSPAKGSEGPGKNCVPVIQRTFAHSSGEQSGSDTDTDSGYGGESEKGDLRSEQPCFKSDHGRRFTMGERIGAIKQESEEPPTKKNRMQLSDDEGHFTSSDLISSPFLGPHPHQPPFCLPFYLIPPSATAYLPMLEKCWYPTSVPVLYPGLNASAAALSSFMNPDKISAPLLMPQRLPSPLPAHPSVDSSVLLQALKPIPPLNLETKD
Consider B1, for which the “repression of PPARγ2 promoter activity by DEC1 fragments” value with PPARγ2 promoter is listed as “do not inhibit PPARγ2 promoter activity”.

B2: N1: N-terminal DEC1 fragment aa1-141 containing the bHLH domain (protein, UniProt O14503 1-141, looked up, fragment)
chain: MERIPSAQPPPACLPKAPGLEHGDLPGMYPAHMYQVYKSRRGIKRSEDSKETYKLPHRLIEKKRRDRINECIAQLKDLLPEHLKLTTLGHLEKAVVLELTLKHVKALTNLIDQQQQKIIALQSGLQAGELSGRNVETGQEM
In the case of B2, in the assay with PPARγ2, the “PPARγ2 expression in L1 cells with ectopic expression” value is given as “repressed”. Further, the “adipocyte differentiation of L1 cells” value in the assay with 3T3-L1 preadipocytes is given as “Significant inhibition”.

B3: C1: C-terminal DEC1 fragment aa121-412 (protein, UniProt O14503 121-412, looked up, fragment)
chain: LQSGLQAGELSGRNVETGQEMFCSGFQTCAREVLQYLAKHENTRDLKSSQLVTHLHRVVSELLQGGTSRKPSDPAPKVMDFKEKPSSPAKGSEGPGKNCVPVIQRTFAHSSGEQSGSDTDTDSGYGGESEKGDLRSEQPCFKSDHGRRFTMGERIGAIKQESEEPPTKKNRMQLSDDEGHFTSSDLISSPFLGPHPHQPPFCLPFYLIPPSATAYLPMLEKCWYPTSVPVLYPGLNASAAALSSFMNPDKISAPLLMPQRLPSPLPAHPSVDSSVLLQALKPIPPLNLETKD
As for B3, the “repression of PPARγ2 promoter activity by DEC1 fragments” value in the assay on PPARγ2 promoter was “do not inhibit PPARγ2 promoter activity”.

Values taken from US7378246B2, “Methods and compositions for regulating adipogenesis” (The Board of Trustees of the Leland Stanford Junior …, priority 2002, dated 2008).
